Assay results: patent EP4559463A1, “EDARAVONE OR ITS SALTS FOR USE IN THE TREATMENT OF OXIDATIVE STRESS-MEDIATED NEURODEGENERATIVE DISORDERS” (Ferrer Internacional, S.A., priority 2023, dated 2025)
Entries after “also recorded” stand apart in the source; their conditions may differ. Read-outs that look alike come from different tables or passages of the source.

Tests used:
[1] = Vitamin B6 monitoring (plasma pyridoxal 5'-phosphate) within the clinical study; type: in vivo, human; parameters: Plasma vitamin B6 (pyridoxal 5'-phosphate), Change from baseline, Median / Plasma vitamin B6 (pyridoxal 5'-phosphate), Change from baseline, Mean: unit not given here; conditions: for Plasma vitamin B6 (pyridoxal 5'-phosphate), Observed value, Median / Plasma vitamin B6 (pyridoxal 5'-phosphate), Observed value, Mean: no unit in table
Description: Therefore, potential neurotoxicity by NCS assessment and by PLP levels during the conduct of the current study was monitored.
Plasmatic concentration of vitamin B6 was monitored at each visit. The normal range of plasma concentration of vitamin B6 in humans (measured as pyridoxal 5'-phosphate) is […], values below this range are considered 'low' and values above, 'high'. In the inclusion visit at time zero patients were classified as 'normal', 'low' or 'high' and the change of this classification was assessed at each visit.
The fact that most of the patients show no change in the classification as 'normal', 'low', or 'high' during the study is a sign of low neurotoxicity of the product. This is the case for patient showing no shift from baseline, for instance 'Normal to Normal' patients.

[2] = system: patients with Amyotrophic Lateral Sclerosis (ALS); assay: Nerve Conduction Study (NCS) within the clinical study; type: in vivo, human; conditions: for Sural-Radial Amp Ratio (SRAR), Shift from Baseline: Low to Low / Sural-Radial Amp Ratio (SRAR), Shift from Baseline: Low to Normal / Sural-Radial Amp Ratio (SRAR), Shift from Baseline: Normal to Low / Sural-Radial Amp Ratio (SRAR), Shift from Baseline: Normal to Normal / Sural nerve - SNAP Amp, Shift from Baseline: Low to Low / Sural nerve - SNAP Amp, Shift from Baseline: Low to Normal / Sural nerve - SNAP Amp, Shift from Baseline: Normal to Low / Sural nerve - SNAP Amp, Shift from Baseline: Normal to Normal: blinded pool edaravone/placebo 2:1
Description: A centralized evaluation was performed by neurophysiologists to avoid any bias between sites and to guarantee the safety of patients. The NCS was initially performed for the first 60 enrolled patients at screening, and on weeks 4, 12, and 24. […] NCS main criteria for neuropathy are decreased sural nerve SNAP (sensory nerve action potential) amplitudes or decreased sural/radial nerve amplitude ratio (SRAR), although all data is assessed globally. […] The fact that most of the patients show no change in these values, i.e., that they start with 'normal' and remain 'normal' is a sign of lack of neurotoxicity of the treatment. The appearance of neuropathy may also occur at the normal population for other causes such as diabetes or alcoholism, totally unrelated to any treatment. The NCS protocol evaluates the sensory nerve action potential (SNAP) amplitudes using standard ring-electrodes and predefined sites for both stimulus (antidromic) and recording sites, including standardized distances that also apply for the inter-electrode distances. […] These measures eliminate any unwanted variation due to instrumentational differences. NCS data is evaluated independently at a single specialized unit taking into account reference values provided by participating sites and using age-adjusted reference values. Recordings can be performed on a standard type of electromyograph (EMG) equipment (e.g., Natus Nicolet EDX, Nicolet Viking, Dantec Keypoint, TECA Synergy, Cadwell). The following steps were followed to perform the NCS assessment: • Recording and documentation of temperature at start of the assessment at hand and foot respectively. Limb temperature should be ≥ 31°C, otherwise warming may be considered or alternatively accepted correction factor for decreased temperature could be done. • Unilateral recording of sensory responses of the following nerves (hand, followed by lower limb) was carried out: • ∘ Median nerve (hand, dig II). The distance from the stimulus and recording electrode should be recorded. • ∘ Ulnar nerve (hand, dig V). The distance from the stimulus and recording electrode should be recorded. • ∘ Radial nerve (back of the hand). A standardized distance stimulus-recording electrode of 12 cm should be used. • ∘ Sural nerve (leg, lateral malleolus). A standardized distance stimulus-recording electrode of 12 cm should be used. • Recording of sensory responses were carried out using standardized sides (left or right) for stimulation (assessments were performed on one side only, the same side for each subject was used throughout the study). Electrodes were placed at an interelectrode distance of 2 cm. […] For each nerve, sensory nerve action potential (SNAP) amplitudes were evaluated. Antidromic stimulus were provided to the subjects. Required quality of the NCS included: optimization of the recordings, ensuring flat base line without a slope, omitting stimulus artifacts and background noise, so that markers could be placed appropriately, and true SNAP amplitude values could be obtained accurately. The NCS Ranges of normality considered for this clinical study for SNAP Amp (sensory nerve action potential amplitude) and SCV (sensory conduction velocity) are shown below: Table 4 Normal values for the sensory nerve action potential amplitude (SNAP Amp) for the sural nerve are values higher than 8 µV for subjects with less than 40 years of age, higher than 5 µV for subjects with 40-60 years of age, and higher than 2 µV for subjects with more than 60 years of age. Normal values for the sural-radial Amp ratio (SRAR) are values higher than 0.45 for subjects with 18-39 years, higher than 0.32 for subjects with 40-59 years and higher than 0.19 for subjects with 60 or more years of age.

[3] = system: beagle dogs; conditions: continuous edaravone infusion; cited from earlier work
[4] = system: dogs; conditions: cited from earlier work
[5] = system: dogs; conditions: continuous i.v. infusion, cited from earlier work
[6] = system: monkeys; conditions: continuous i.v. infusion of 1000 mg/kg/day, 28 days; cited from earlier work
[7] = system: patients with Amyotrophic Lateral Sclerosis (ALS); assay: Clinical assessment of neuropathy in the clinical study of edaravone granules for oral solution; type: in vivo, human
Description: A clinical study was started to investigate the efficacy and safety of 100 mg of edaravone granules for oral solution (composition shown in table 1 above) in 300 patients with Amyotrophic Lateral Sclerosis (ALS) following treatment for 48 or 72 weeks. The first 100 subjects enrolled will have either 72 weeks of follow-up or have reached an intercurrent event, and the rest (about two thirds of enrolled patients) will be followed up to 48 weeks (or have reached an intercurrent event).
During the treatment, the participants are randomly assigned to receive a daily dose of 100 mg of either edaravone (composition shown in table 1 above) or placebo at a ratio of 2:1 (i.e., two thirds of the patients receive the edaravone formulation and one third receives placebo) for 72 weeks. The study medication, both the placebo and edaravone, is available in single-dose sachets, which must be dissolved in water and taken orally once daily in the morning after a lapse of at least 2 hours from the last meal consumption.
Several authors and regulatory agencies (see for instance EMA/CHMP/290284/2019, page 134) consider that monitoring of the levels of pyridoxal 5'-phosphate (PLP), the active form of vitamin B6, and testing of motor or sensory nerve conduction, such as Nerve Conduction Studies (NCS) described below, should be carried out in order to allow for early detection of neurotoxicity. In addition to this, clinical assessment of neuropathy of patients was carried out by neurologist.
Moreover, the percentage of neuropathy found in patients suffering from other chronic diseases such as diabetes, HIV infection or alcoholism is higher than 20 %. When the blinding of the study is broken, the specific percentages of neuropathy could be linked to the edaravone and placebo arms.

[8] = Visit 1 (Baseline, before treatment), N=163
[9] = Visit 2 (Week 4), N=159, blinded pool edaravone/placebo 2:1
[10] = Visit 3 (Week 12), n=109, blinded pool edaravone/placebo 2:1
[11] = Visit 4 (Week 24), n=59, blinded pool edaravone/placebo 2:1
[12] = Visit 5 (Week 36), n=12, blinded pool edaravone/placebo 2:1

- Plasma vitamin B6 (pyridoxal 5'-phosphate), Observed value, Median ([1]; Screening (before treatment), n=182): 41.50
- Plasma vitamin B6 (pyridoxal 5'-phosphate), Observed value, Mean ([1]; Screening (before treatment), n=182, normal range 12-128 ng/L): 74.90
- Plasma vitamin B6 (pyridoxal 5'-phosphate), Observed value, Mean [1, 8]: 76.6
- Plasma vitamin B6 (pyridoxal 5'-phosphate), Observed value, Median [1, 8]: 41.0
- Plasma vitamin B6 (pyridoxal 5'-phosphate), Change from baseline, Mean [1, 9]: 0.5
- Plasma vitamin B6 (pyridoxal 5'-phosphate), Change from baseline, Median [1, 9]: 2.0
- Plasma vitamin B6 (pyridoxal 5'-phosphate), Observed value, Mean [1, 9]: 77.10
- Plasma vitamin B6 (pyridoxal 5'-phosphate), Observed value, Median [1, 9]: 43.0
- Plasma vitamin B6 (pyridoxal 5'-phosphate), Change from baseline, Mean [1, 10]: -6.8
- Plasma vitamin B6 (pyridoxal 5'-phosphate), Change from baseline, Median [1, 10]: 2.0
- Plasma vitamin B6 (pyridoxal 5'-phosphate), Observed value, Mean [1, 10]: 69.80
- Plasma vitamin B6 (pyridoxal 5'-phosphate), Observed value, Median [1, 10]: 43.0
- Plasma vitamin B6 (pyridoxal 5'-phosphate), Change from baseline, Mean [1, 11]: -0.7
- Plasma vitamin B6 (pyridoxal 5'-phosphate), Change from baseline, Median [1, 11]: 4.0
- Plasma vitamin B6 (pyridoxal 5'-phosphate), Observed value, Mean [1, 11]: 75.9
- Plasma vitamin B6 (pyridoxal 5'-phosphate), Observed value, Median [1, 11]: 45.0
- Plasma vitamin B6 (pyridoxal 5'-phosphate), Change from baseline, Mean [1, 12]: 19.2
- Plasma vitamin B6 (pyridoxal 5'-phosphate), Change from baseline, Median [1, 12]: 33.5
- Plasma vitamin B6 (pyridoxal 5'-phosphate), Observed value, Mean [1, 12]: 95.8
- Plasma vitamin B6 (pyridoxal 5'-phosphate), Observed value, Median [1, 12]: 74.5
- patients showing clinical signs of neuropathy ([7]; 313 randomized patients, blinded pool edaravone/placebo 2:1, 100 mg oral once daily, treated 6 months to one year and 7 months): 2.2%
- number of patients showing clinical signs of neuropathy ([7]; out of 313 randomized patients, blinded pool edaravone/placebo 2:1, treated 6 months to one year and 7 months): 7
SMILES: CC1=NN(c2ccccc2)C(=O)C1 [edaravone, 5-methyl-2-phenyl-4H-pyrazol-3-one]
- plasmatic concentration of vitamin B6 versus baseline ([1]; monitored at each visit): do not show a decrease; also recorded: not reduced from baseline
- Sural-Radial Amp Ratio (SRAR), Shift from Baseline: Low to Low ([2]; Visit 2 (Week 4), N=165): 9 (5.5) n (%)
- Sural-Radial Amp Ratio (SRAR), Shift from Baseline: Low to Normal ([2]; Visit 2 (Week 4), N=165): 8 (4.8) n (%)
- Sural-Radial Amp Ratio (SRAR), Shift from Baseline: Normal to Low ([2]; Visit 2 (Week 4), N=165): 6 (3.6) n (%)
- Sural-Radial Amp Ratio (SRAR), Shift from Baseline: Normal to Normal ([2]; Visit 2 (Week 4), N=165): 142 (86.1) n (%)
- Sural nerve - SNAP Amp, Shift from Baseline: Low to Low ([2]; Visit 2 (Week 4), N=167): 3 (1.8) n (%)
- Sural nerve - SNAP Amp, Shift from Baseline: Low to Normal ([2]; Visit 2 (Week 4), N=167): 0 (0.0) n (%)
- Sural nerve - SNAP Amp, Shift from Baseline: Normal to Low ([2]; Visit 2 (Week 4), N=167): 2 (1.2) n (%)
- Sural nerve - SNAP Amp, Shift from Baseline: Normal to Normal ([2]; Visit 2 (Week 4), N=167): 162 (97.0) n (%)
- Sural-Radial Amp Ratio (SRAR), Shift from Baseline: Low to Low ([2]; Visit 3 (Week 12), N=112): 5 (4.5) n (%)
- Sural-Radial Amp Ratio (SRAR), Shift from Baseline: Low to Normal ([2]; Visit 3 (Week 12), N=112): 4 (3.6) n (%)
- Sural-Radial Amp Ratio (SRAR), Shift from Baseline: Normal to Low ([2]; Visit 3 (Week 12), N=112): 10 (8.9) n (%)
- Sural-Radial Amp Ratio (SRAR), Shift from Baseline: Normal to Normal ([2]; Visit 3 (Week 12), N=112): 93 (83.0) n (%)
- Sural nerve - SNAP Amp, Shift from Baseline: Low to Low ([2]; Visit 3 (Week 12), N=115): 2 (1.7) n (%)
- Sural nerve - SNAP Amp, Shift from Baseline: Low to Normal ([2]; Visit 3 (Week 12), N=115): 0 (0.0) n (%)
- Sural nerve - SNAP Amp, Shift from Baseline: Normal to Low ([2]; Visit 3 (Week 12), N=115): 3 (2.6) n (%)
- Sural nerve - SNAP Amp, Shift from Baseline: Normal to Normal ([2]; Visit 3 (Week 12), N=115): 110 (95.7) n (%)
- Sural-Radial Amp Ratio (SRAR), Shift from Baseline: Low to Low ([2]; Visit 4 (Week 24), N=59): 4 (6.8) n (%)
- Sural-Radial Amp Ratio (SRAR), Shift from Baseline: Low to Normal ([2]; Visit 4 (Week 24), N=59): 1 (1.7) n (%)
- Sural-Radial Amp Ratio (SRAR), Shift from Baseline: Normal to Low ([2]; Visit 4 (Week 24), N=59): 4 (6.8) n (%)
- Sural-Radial Amp Ratio (SRAR), Shift from Baseline: Normal to Normal ([2]; Visit 4 (Week 24), N=59): 50 (84.7) n (%)
- Sural nerve - SNAP Amp, Shift from Baseline: Low to Low ([2]; Visit 4 (Week 24), N=60): 0 (0.0) n (%)
- Sural nerve - SNAP Amp, Shift from Baseline: Low to Normal ([2]; Visit 4 (Week 24), N=60): 0 (0.0) n (%)
- Sural nerve - SNAP Amp, Shift from Baseline: Normal to Low ([2]; Visit 4 (Week 24), N=60): 3 (5.0) n (%)
- Sural nerve - SNAP Amp, Shift from Baseline: Normal to Normal ([2]; Visit 4 (Week 24), N=60): 57 (95.0) n (%)
- main criteria for neuropathy: decreased sural nerve SNAP amplitudes or decreased sural/radial nerve amplitude ratio (SRAR) ([2]; at baseline and at different times during the study): not found in most of the patients
- plasma levels of vitamin B6 [3]: decreasing plasma levels of vitamin B6
- levels of pyridoxal 5'-phosphate (PLP) ([4]; continuous i.v. infusions of 1000 mg/kg/day): reduced
- onset of the axonal nerve fibre degenerations ([4]; continuously infused i.v. dose 120 mg/kg/day): 15 days
- onset of the axonal nerve fibre degenerations ([4]; continuously infused i.v. dose 300 mg/kg/day): 11 days
- onset of dose-dependent impaired motor function ([5]; 300 mg/kg/day): 13 days
- onset of dose-dependent impaired motor function ([5]; ≥60 mg/kg/day): 18 days of treatment
- finding associated with the loss of motor function [5]: axonal degeneration of peripheral nerves fibres and in the CNS
- histological correlate in the central and peripheral nervous system [6]: minimal to severe nerve fibre degenerations
- motor deficits, time of appearance [6]: third and fourth week
- percentage of neuropathy in patients compared with normal population ([7]; clinical trial with edaravone, normal population about 8 %): not higher than the percentage found in the normal population
